Results published in ChEMBL document CHEMBL6087397, “H2S-releasing oridonin derivatives with improved antitumor activity by inhibiting the PI3K/AKT pathway” (Bioorg Med Chem, 2024).

Assays:
Assay type in all cases: functional, cell-based
[1] = tested on: A549; assay: Antiproliferative activity against human A549 cells assessed as inhibition of cell proliferation incubated for 48 hrs by CCK-8 assay; conditions: A549, 48 h
[2] = tested on: MCF7; assay: Antiproliferative activity against human MCF7 cells assessed as inhibition of cell proliferation incubated for 48 hrs by CCK-8 assay; conditions: MCF7, 48 h
[3] = tested on: PANC-1; assay: Antiproliferative activity against human PANC-1 cells assessed as inhibition of cell proliferation incubated for 48 hrs by CCK-8 assay; conditions: PANC-1, 48 h
[4] = tested on: MIA PaCa-2; assay: Antiproliferative activity against human MIA PaCa-2 cells assessed as inhibition of cell proliferation incubated for 48 hrs by CCK-8 assay; conditions: MIA PaCa-2, 48 h
[5] = tested on: HepG2; assay: Antiproliferative activity against human HepG2 cells assessed as inhibition of cell proliferation incubated for 48 hrs by CCK-8 assay; conditions: HepG2, 48 h

Structure (SMILES): C=C1C(=O)[C@]23[C@H](OC(=O)CCC(=O)Oc4ccc(-c5nc(=O)ss5)cc4)[C@H]1CC[C@H]2[C@@]12CO[C@]3(O)[C@@H](O)[C@@H]1C(C)(C)CCC2=O
- IC50 [1]: 18.3 µM
- IC50 [2]: 19.1 µM

Structure (SMILES): C=C1C(=O)[C@]23[C@H](OC(=O)CCCC(=O)OCCCCOC(=O)c4ccc(N=C=S)cc4)[C@H]1CC[C@H]2[C@@]12CO[C@]3(O)[C@@H](O)[C@@H]1C(C)(C)CC[C@@H]2O
- IC50 [1]: > 40 µM
- IC50 [2]: > 40 µM

Structure (SMILES): C=C1C(=O)[C@]23[C@H](OC(=O)CCCC(=O)OCC#CCOC(=O)c4ccc(N=C=S)cc4)[C@H]1CC[C@H]2[C@@]12CO[C@]3(O)[C@@H](O)[C@@H]1C(C)(C)CC[C@@H]2OC(C)=O
- IC50 [1]: > 40 µM
- IC50 [2]: 12.8 µM

Structure (SMILES): C=C1C(=O)[C@]23[C@H](OC(=O)CCCC(=O)OCCOC(=O)c4ccc(N=C=S)cc4)[C@H]1CC[C@H]2[C@@]12CO[C@]3(O)[C@@H](O)[C@@H]1C(C)(C)CCC2=O
- IC50 [1]: 32.4 µM
- IC50 [2]: 19.2 µM

Structure (SMILES): O=C(O)c1ccc(N=C=S)cc1
- IC50 [3]: > 40 µM
- IC50 [1]: > 40 µM
- IC50 [2]: > 40 µM
- IC50 [4]: > 40 µM
- IC50 [5]: > 40 µM

Structure (SMILES): C=C1C(=O)[C@]23[C@H](OC(=O)c4ccc(N=C=S)cc4)[C@H]1CC[C@H]2[C@@]12CO[C@]3(O)[C@@H](O)[C@@H]1C(C)(C)CCC2=O
- IC50 [1]: 21.2 µM
- IC50 [2]: 7.08 µM

Structure (SMILES): C=C1C(=O)[C@]23[C@H](OC(=O)CCCC(=O)OCCCCOC(=O)c4ccc(N=C=S)cc4)[C@H]1CC[C@H]2[C@@]12CO[C@]3(O)[C@@H](O)[C@@H]1C(C)(C)CC[C@@H]2OC(C)=O
- IC50 [1]: > 40 µM
- IC50 [2]: 9.99 µM

Structure (SMILES): C=C1C(=O)[C@]23[C@H](OC(=O)CCC(=O)Oc4ccc(-c5nc(=O)ss5)cc4)[C@H]1CC[C@H]2[C@@]12CO[C@]3(O)[C@@H](O)[C@@H]1C(C)(C)CC[C@@H]2OC(C)=O
- IC50 [1]: 15.2 µM
- IC50 [2]: 15.4 µM

Structure (SMILES): C=C1C(=O)[C@]23[C@H](OC(=O)CCCC(=O)OCCOC(=O)c4ccc(N=C=S)cc4)[C@H]1CC[C@H]2[C@@]12CO[C@]3(O)[C@@H](O)[C@@H]1C(C)(C)CC[C@@H]2OC(C)=O
- IC50 [1]: > 40 µM
- IC50 [2]: 8.7 µM

Structure (SMILES): C=C1C(=O)[C@]23[C@H](O)[C@H]1CC[C@H]2[C@@]12CO[C@]3(O)[C@@H](O)[C@@H]1C(C)(C)CC[C@@H]2O [ORIDONIN]
- IC50 [3]: 19.1 µM
- IC50 [1]: 14.9 µM
- IC50 [2]: 16 µM
- IC50 [4]: 5.97 µM
- IC50 [5]: 28.1 µM

Structure (SMILES): C=C1C(=O)[C@]23[C@H](OC(=O)CCCC(=O)OCCCOC(=O)c4ccc(N=C=S)cc4)[C@H]1CC[C@H]2[C@@]12CO[C@]3(O)[C@@H](O)[C@@H]1C(C)(C)CC[C@@H]2OC(C)=O
- IC50 [3]: 24.8 µM
- IC50 [1]: > 40 µM
- IC50 [2]: 6.98 µM
- IC50 [4]: 14.9 µM
- IC50 [5]: > 40 µM

Structure (SMILES): C=C1C(=O)[C@]23[C@H](OC(=O)CCC(=O)OCCOC(=O)c4ccc(N=C=S)cc4)[C@H]1CC[C@H]2[C@@]12CO[C@]3(O)[C@@H](O)[C@@H]1C(C)(C)CC[C@@H]2O
- IC50 [1]: > 40 µM
- IC50 [2]: > 40 µM

Structure (SMILES): C=C1C(=O)[C@]23[C@H](OC(=O)CCCC(=O)OCc4ccc(-c5nc(=O)ss5)cc4)[C@H]1CC[C@H]2[C@@]12CO[C@]3(O)[C@@H](O)[C@@H]1C(C)(C)CCC2=O
- IC50 [1]: 28.5 µM
- IC50 [2]: > 40 µM

Structure (SMILES): COc1cccc2c1C(=O)c1c(O)c3c(c(O)c1C2=O)C[C@@](O)(C(=O)CO)C[C@@H]3O[C@H]1C[C@H](N)[C@H](O)[C@H](C)O1 [DOXORUBICIN]
- IC50 [3]: 1.19 µM
- IC50 [4]: 1.16 µM

Structure (SMILES): C=C1C(=O)[C@]23[C@H](OC(=O)CCCC(=O)OCC#CCOC(=O)c4ccc(N=C=S)cc4)[C@H]1CC[C@H]2[C@@]12CO[C@]3(O)[C@@H](O)[C@@H]1C(C)(C)CC[C@@H]2O
- IC50 [1]: > 40 µM
- IC50 [2]: > 40 µM

Structure (SMILES): O=c1nc(-c2ccc(O)cc2)ss1
- IC50 [1]: > 40 µM
- IC50 [2]: > 40 µM

Structure (SMILES): C=C1C(=O)[C@]23[C@H](OC(=O)CCC(=O)OCCCCOC(=O)c4ccc(N=C=S)cc4)[C@H]1CC[C@H]2[C@@]12CO[C@]3(O)[C@@H](O)[C@@H]1C(C)(C)CC[C@@H]2O
- IC50 [1]: > 40 µM
- IC50 [2]: > 40 µM

Structure (SMILES): C=C1C(=O)[C@]23[C@H](OC(=O)CCC(=O)OCCCOC(=O)c4ccc(N=C=S)cc4)[C@H]1CC[C@H]2[C@@]12CO[C@]3(O)[C@@H](O)[C@@H]1C(C)(C)CC[C@@H]2O
- IC50 [1]: 36.5 µM
- IC50 [2]: > 40 µM

Structure (SMILES): C=C1C(=O)[C@]23[C@H](OC(=O)CCCC(=O)OCCCOC(=O)c4ccc(N=C=S)cc4)[C@H]1CC[C@H]2[C@@]12CO[C@]3(O)[C@@H](O)[C@@H]1C(C)(C)CC[C@@H]2O
- IC50 [1]: > 40 µM
- IC50 [2]: > 40 µM

Structure (SMILES): C=C1C(=O)[C@]23[C@H](OC(=O)CCC(=O)Oc4ccc(-c5nc(=O)ss5)cc4)[C@H]1CC[C@H]2[C@@]12CO[C@]3(O)[C@@H](O)[C@@H]1C(C)(C)CC[C@@H]2O
- IC50 [1]: 24.2 µM
- IC50 [2]: > 40 µM

Structure (SMILES): C=C1C(=O)[C@]23[C@H](OC(=O)CCCC(=O)OCc4ccc(-c5nc(=O)ss5)cc4)[C@H]1CC[C@H]2[C@@]12CO[C@]3(O)[C@@H](O)[C@@H]1C(C)(C)CC[C@@H]2O
- IC50 [1]: > 40 µM
- IC50 [2]: > 40 µM

Structure (SMILES): C=C1C(=O)[C@]23[C@H](O)[C@H]1CC[C@H]2[C@@]12CO[C@]3(O)[C@@H](O)[C@@H]1C(C)(C)CCC2=O
- IC50 [1]: 6.84 µM
- IC50 [2]: 13.5 µM

Structure (SMILES): C=C1C(=O)[C@]23[C@H](OC(=O)CCC(=O)OCC#CCOC(=O)c4ccc(N=C=S)cc4)[C@H]1CC[C@H]2[C@@]12CO[C@]3(O)[C@@H](O)[C@@H]1C(C)(C)CC[C@@H]2O
- IC50 [1]: > 40 µM
- IC50 [2]: > 40 µM

Structure (SMILES): C=C1C(=O)[C@]23[C@H](OC(=O)CCC(=O)OCC#CCOC(=O)c4ccc(N=C=S)cc4)[C@H]1CC[C@H]2[C@@]12CO[C@]3(O)[C@@H](O)[C@@H]1C(C)(C)CCC2=O
- IC50 [1]: > 40 µM
- IC50 [2]: 9.93 µM

Structure (SMILES): C=C1C(=O)[C@]23[C@H](OC(=O)CCCC(=O)OCc4ccc(-c5nc(=O)ss5)cc4)[C@H]1CC[C@H]2[C@@]12CO[C@]3(O)[C@@H](O)[C@@H]1C(C)(C)CC[C@@H]2OC(C)=O
- IC50 [1]: 14.3 µM
- IC50 [2]: 13 µM

Structure (SMILES): C=C1C(=O)[C@]23[C@H](OC(=O)CCCC(=O)OCCCOC(=O)c4ccc(N=C=S)cc4)[C@H]1CC[C@H]2[C@@]12CO[C@]3(O)[C@@H](O)[C@@H]1C(C)(C)CCC2=O
- IC50 [1]: 23.2 µM
- IC50 [2]: 8.43 µM

Structure (SMILES): C=C1C(=O)[C@]23[C@H](OC(=O)CCC(=O)OCCCCOC(=O)c4ccc(N=C=S)cc4)[C@H]1CC[C@H]2[C@@]12CO[C@]3(O)[C@@H](O)[C@@H]1C(C)(C)CCC2=O
- IC50 [1]: 26.6 µM
- IC50 [2]: 8.08 µM

Structure (SMILES): C=C1C(=O)[C@]23[C@H](OC(=O)CCC(=O)OCCCOC(=O)c4ccc(N=C=S)cc4)[C@H]1CC[C@H]2[C@@]12CO[C@]3(O)[C@@H](O)[C@@H]1C(C)(C)CCC2=O
- IC50 [1]: 16.3 µM
- IC50 [2]: 10.4 µM

Structure (SMILES): C=C1C(=O)[C@]23[C@H](OC(=O)CCCC(=O)OCCCCOC(=O)c4ccc(N=C=S)cc4)[C@H]1CC[C@H]2[C@@]12CO[C@]3(O)[C@@H](O)[C@@H]1C(C)(C)CCC2=O
- IC50 [3]: 18.8 µM
- IC50 [1]: 24.4 µM
- IC50 [2]: 6.93 µM
- IC50 [4]: 11 µM
- IC50 [5]: 8.69 µM

Structure (SMILES): C=C1C(=O)[C@]23[C@H](OC(=O)CCC(=O)OCCOC(=O)c4ccc(N=C=S)cc4)[C@H]1CC[C@H]2[C@@]12CO[C@]3(O)[C@@H](O)[C@@H]1C(C)(C)CC[C@@H]2OC(C)=O
- IC50 [1]: 21.2 µM
- IC50 [2]: 8.8 µM

Structure (SMILES): C=C1C(=O)[C@]23[C@H](O)[C@H]1CC[C@H]2[C@@]12CO[C@@]3(O)[C@@H](O)[C@@H]1C(C)(C)CC[C@@H]2OC(C)=O
- IC50 [1]: 5.47 µM
- IC50 [2]: 8.76 µM

Structure (SMILES): O=c1[nH]cc(F)c(=O)[nH]1 [FLUOROURACIL]
- IC50 [1]: 11.9 µM
- IC50 [2]: 25.1 µM

Structure (SMILES): C=C1C(=O)[C@]23[C@H](OC(=O)CCC(=O)OCCCCOC(=O)c4ccc(N=C=S)cc4)[C@H]1CC[C@H]2[C@@]12CO[C@]3(O)[C@@H](O)[C@@H]1C(C)(C)CC[C@@H]2OC(C)=O
- IC50 [1]: > 40 µM
- IC50 [2]: 11.6 µM

Structure (SMILES): C=C1C(=O)[C@]23[C@H](OC(=O)CCCC(=O)OCC#CCOC(=O)c4ccc(N=C=S)cc4)[C@H]1CC[C@H]2[C@@]12CO[C@]3(O)[C@@H](O)[C@@H]1C(C)(C)CCC2=O
- IC50 [1]: > 40 µM
- IC50 [2]: 14 µM

Structure (SMILES): C=C1C(=O)[C@]23[C@H](OC(=O)c4ccc(N=C=S)cc4)[C@H]1CC[C@H]2[C@@]12CO[C@]3(O)[C@@H](O)[C@@H]1C(C)(C)CC[C@@H]2OC(C)=O
- IC50 [1]: 28.1 µM
- IC50 [2]: 13 µM

Structure (SMILES): C=C1C(=O)[C@]23[C@H](OC(=O)CCC(=O)OCC#CCOC(=O)c4ccc(N=C=S)cc4)[C@H]1CC[C@H]2[C@@]12CO[C@]3(O)[C@@H](O)[C@@H]1C(C)(C)CC[C@@H]2OC(C)=O
- IC50 [3]: > 40 µM
- IC50 [1]: > 40 µM
- IC50 [2]: 4.49 µM
- IC50 [4]: 28.7 µM
- IC50 [5]: 7.65 µM

Structure (SMILES): C=C1C(=O)[C@]23[C@H](OC(=O)CCCC(=O)OCCOC(=O)c4ccc(N=C=S)cc4)[C@H]1CC[C@H]2[C@@]12CO[C@]3(O)[C@@H](O)[C@@H]1C(C)(C)CC[C@@H]2O
- IC50 [1]: > 40 µM
- IC50 [2]: > 40 µM

Structure (SMILES): C=C1C(=O)[C@]23[C@H](OC(=O)CCC(=O)OCCOC(=O)c4ccc(N=C=S)cc4)[C@H]1CC[C@H]2[C@@]12CO[C@]3(O)[C@@H](O)[C@@H]1C(C)(C)CCC2=O
- IC50 [1]: 32.2 µM
- IC50 [2]: 16.7 µM

Structure (SMILES): C=C1C(=O)[C@]23[C@H](OC(=O)CCC(=O)OCCCOC(=O)c4ccc(N=C=S)cc4)[C@H]1CC[C@H]2[C@@]12CO[C@]3(O)[C@@H](O)[C@@H]1C(C)(C)CC[C@@H]2OC(C)=O
- IC50 [1]: 24.9 µM
- IC50 [2]: 8.45 µM
